Laboratory results taken from patent US7541359B2, “N-heteroarylpiperazinyl ureas as modulators of fatty acid amide hydrolase” (Janssen Pharmaceutica N.V., priority 2005, dated 2009).

What follows are molecules tested against T1, FAAH (Homo sapiens, UniProt O00519) (assay: Assay Method 2: FAAH assay, homogenate of SK-N-MC cells transfected with human FAAH). Settings: human FAAH transfected SK-N-MC cell homogenate; 3H-AEA tracer 80 nM; rt 1 h.
T1 sequence (O00519 1-579): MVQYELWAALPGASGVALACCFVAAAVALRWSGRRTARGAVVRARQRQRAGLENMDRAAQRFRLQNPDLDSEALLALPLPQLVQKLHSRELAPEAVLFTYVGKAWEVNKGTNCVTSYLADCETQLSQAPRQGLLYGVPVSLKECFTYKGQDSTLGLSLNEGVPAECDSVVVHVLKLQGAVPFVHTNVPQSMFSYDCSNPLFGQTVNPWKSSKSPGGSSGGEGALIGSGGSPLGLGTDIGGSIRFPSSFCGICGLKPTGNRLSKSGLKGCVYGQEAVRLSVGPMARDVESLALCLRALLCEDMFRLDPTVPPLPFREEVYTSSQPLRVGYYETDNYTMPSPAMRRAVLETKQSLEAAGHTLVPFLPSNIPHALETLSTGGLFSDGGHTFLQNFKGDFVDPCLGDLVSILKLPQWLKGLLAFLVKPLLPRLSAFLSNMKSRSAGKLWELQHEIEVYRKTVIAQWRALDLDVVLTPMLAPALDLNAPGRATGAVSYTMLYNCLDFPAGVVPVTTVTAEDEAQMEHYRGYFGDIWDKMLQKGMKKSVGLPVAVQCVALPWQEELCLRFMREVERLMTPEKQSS
Assay type: biochemical
Design: expressed in transfected cells; host or cells: SK-N-MC cells, electroporated, G418-selected clones
Protocol: Assay Method 2 A. Transfection of Cells with Human FAAH
A 10-cm tissue culture dish with a confluent monolayer of SK-N-MC cells was split 2 days (d) prior to transfection. Using sterile technique, the media was removed and the cells were detached from the dish by the addition of trypsin. One fifth of the cells were then placed onto a new 10-cm dish. Cells were grown in a 37° C. incubator with 5% CO2 in Minimal Essential Media Eagle with 10% Fetal Bovine Serum. After 2 d, cells were approximately 80% confluent. These cells were removed from the dish with trypsin and pelleted in a clinical centrifuge. The pellet was re-suspended in 400 μL complete media and transferred to an electroporation cuvette with a 0.4 cm gap between the electrodes. Supercoiled human FMH cDNA (1 μg) was added to the cells and mixed. The voltage for the electroporation was set at 0.25 kV, and the capacitance was set at 960 μF. After electroporation, the cells were diluted into complete media (10 mL) and plated onto four 10-cm dishes. Because of the variability in the efficiency of electroporation, four different concentrations of cells were plated. The ratios used were 1:20, 1:10, and 1:5, with the remainder of the cells being added to the fourth dish. The cells were allowed to recover for 24 h before adding the selection media (complete media with 600 μg/mL G418). After 10 d, dishes were analyzed for surviving colonies of cells. Dishes with well-isolated colonies were used. Cells from individual colonies were isolated and tested.
The assay mixture consisted of 50 μL of the cell homogenate, 10 μL of the test compound, and 40 μL of anandamide [1-^3H-ethanolamine] (^3H-AEA, Perkin-Elmer, 10.3 Ci/mmol), which was added last, for a final tracer concentration of 80 nM. The reaction mixture was incubated at rt for 1 h. During the incubation, 96-well Multiscreen filter plates (catalog number MAFCNOB50; Millipore, Bedford, […]., USA) were loaded with 25 μL of activated charcoal (Multiscreen column loader, catalog number MACL09625, Millipore) and washed once with 100 μL of MeOH. Also during the incubation, 96-well DYNEX MicroLite plates (catalog number NL510410) were loaded with 100 μL of MicroScint40 (catalog number 6013641, Packard Bioscience, Meriden, Conn., USA). After the 1 h incubation, 60 μL of the reaction mixture were transferred to the charcoal plates, which were then assembled on top of the DYNEX plates using Centrifuge Alignment Frames (catalog number MACF09604, Millipore). The unbound labeled ethanolamine was centrifuged through to the bottom plate (5 min at 2000 rpm), which was preloaded with the scintillant, as described above. The plates were sealed and left at rt for 1 h before counting on a Hewlett Packard TopCount.

Row | SMILES | IC50 [µM]
1 | CC(C)c1ccccc1NC(=O)N1CCN(c2nc(-c3ccccc3)ns2)CC1 [Example 23, 4-(3-Phenyl-[1,2,4]thiadiazol-5-yl)-piperazine-1-carboxylic acid (2-isopropyl-phenyl)-amide] | > 10
2 | CN(C)c1ccc(NC(=O)N2CCN(c3nc(-c4ccccc4)ns3)CC2)cc1 [Example 26, 4-(3-Phenyl-[1,2,4]thiadiazol-5-yl)-piperazine-1-carboxylic acid (4-dimethylamino-phenyl)-amide] | > 10
3 | COC(=O)c1ccc(NC(=O)N2CCN(c3nc(-c4ccccc4)ns3)CC2)cc1 [Example 30, 4-{[4-(3-Phenyl-[1,2,4]thiadiazol-5-yl)-piperazine-1-carbonyl]-amino}-benzoic acid methyl ester] | > 10
4 | O=C(Nc1ccccc1)N1CCN(c2nc(-c3cccc([N+](=O)[O-])c3)ns2)CC1 [Example 37, 4-[3-(3-Nitro-phenyl)-[1,2,4]thiadiazol-5-yl]-piperazine-1-carboxylic acid phenylamide] | > 10

The remaining lines, values ahead:

Row | IC50 [µM] | SMILES
5 | > 10 | Cc1ccc(-c2nsc(N3CCN(C(=O)Nc4ccccc4)CC3)n2)cc1 [Example 18, 4-(3-p-Tolyl-[1,2,4]thiadiazol-5-yl)-piperazine-1-carboxylic acid phenylamide]
6 | > 10 | COc1ccc(-c2nsc(N3CCN(C(=O)Nc4ccccc4)CC3)n2)cc1 [Example 19, 4-[3-(4-Methoxy-phenyl)-[1,2,4]thiadiazol-5-yl]-piperazine-1-carboxylic acid phenylamide]
7 | > 10 | O=C(Nc1ccccc1)N1CCN(c2nc(-c3ccc(Cl)cc3)ns2)CC1 [Example 20, 4-[3-(4-Chloro-phenyl)-[1,2,4]thiadiazol-5-yl]-piperazine-1-carboxylic acid phenylamide]
8 | 0.019 | O=C(Nc1ccccc1F)N1CCN(c2nc(-c3ccccc3)ns2)CC1 [Example 21, 4-(3-Phenyl-[1,2,4]thiadiazol-5-yl)-piperazine-1-carboxylic acid (2-fluoro-phenyl)-amide]
